Experimental data: patent publication US20250230193A1, “CYCLIC COMPOUND HAVING SELECTIVE KRAS INHIBITORY EFFECT ON HRAS AND NRAS” (CHUGAI SEIYAKU KABUSHIKI KAISHA, priority 2022, published 2025)
Where a SMILES comes first, the peptide text is derived from it. Bridges are numbered along the chain shown (N, C = ends). [ ]: non-standard residue; d: D form. hPhe(3-Cl-4-CF3) = N[C@@H](CCc1ccc(C(F)(F)F)c(Cl)c1)C(=O)O; NPrPhe(4-CF3) = CCCN[C@@H](Cc1ccc(C(F)(F)F)cc1)C(=O)O; NMeGly(cPent) = CN[C@H](C(=O)O)C1CCCC1; Hyp = O=C(O)[C@@H]1C[C@@H](O)CN1; NMeL = CN[C@@H](CC(C)C)C(=O)O; Ac5c = NC1(C(=O)O)CCCC1; Aze = O=C(O)[C@@H]1CCN1; Sar = CNCC(=O)O

Legend:
[1] = molecular target: GDP-bound NRAS wild-type protein (Homo sapiens, UniProt P01111); assay: Binding to NRAS by surface plasmon resonance (SPR), Single Cycle Kinetics; details: for NRAS/KRAS (ratio of KD value with respect to NRAS to KD value with respect to KRAS): GDP-bound NRAS wild-type vs GDP-bound KRAS wild-type
Chain of GDP-bound NRAS wild-type protein (P01111 whole entry): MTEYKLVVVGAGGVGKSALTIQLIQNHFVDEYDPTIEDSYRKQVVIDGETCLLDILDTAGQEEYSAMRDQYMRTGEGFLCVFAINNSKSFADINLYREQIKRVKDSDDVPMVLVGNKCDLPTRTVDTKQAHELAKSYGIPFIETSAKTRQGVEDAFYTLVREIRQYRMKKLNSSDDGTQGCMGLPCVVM

[2] = molecular target: GDP-bound HRAS wild-type protein (Homo sapiens, UniProt P01112); assay: Binding to HRAS by surface plasmon resonance (SPR), Single Cycle Kinetics; details: for HRAS/KRAS (ratio of KD value with respect to HRAS to KD value with respect to KRAS): GDP-bound HRAS wild-type vs GDP-bound KRAS wild-type
Chain of GDP-bound HRAS wild-type protein (P01112 whole entry): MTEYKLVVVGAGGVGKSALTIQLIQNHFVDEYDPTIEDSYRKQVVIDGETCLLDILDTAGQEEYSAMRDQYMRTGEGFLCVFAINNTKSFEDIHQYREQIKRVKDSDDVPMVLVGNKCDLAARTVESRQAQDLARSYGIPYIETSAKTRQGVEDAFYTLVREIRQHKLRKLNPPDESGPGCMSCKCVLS

[3] = SPR, GDP-bound wild-type proteins

## CCO[C@@H]1C[C@H]2C(=O)NC3(CCC3)C(=O)N(C)[C@@H](C3CCCC3)C(=O)N(C)[C@H](C(=O)N3CCOCC3)CC(=O)N(C)[C@@H](Cc3cccc(F)c3)C(=O)N[C@@H]([C@@H](C)CC)C(=O)N(C)CC(=O)N(C)[C@H]3CCCCCN(C3=O)[C@@H](Cc3ccc(C(F)(F)F)cc3)C(=O)N(C)CC(=O)N[C@@H](CCc3cc(F)c(C(F)(F)F)c(F)c3)C(=O)N2C1 [PP0856]
[1]; KD ratio, SPR
  NRAS/KRAS (ratio of KD value with respect to NRAS to KD value with respect to KRAS): B (a compound having 3 or more and less than 10 is denoted as B)
[2]; KD ratio, SPR
  HRAS/KRAS (ratio of KD value with respect to HRAS to KD value with respect to KRAS): B (a compound having 3 or more and less than 10 is denoted as B)

## CCO[C@@H]1C[C@H]2C(=O)NC3(CCC3)C(=O)N(C)[C@@H](C3CCCC3)C(=O)N(C)[C@H](C(=O)N3CCOCC3)CC(=O)N(CC)[C@@H](CC(C)C)C(=O)N[C@@H]([C@@H](C)CC)C(=O)N(C)CC(=O)N(C)[C@H]3CC(C)=CCN(C3=O)[C@@H](Cc3ccc(C(F)(F)F)cc3)C(=O)N(C)CC(=O)N[C@@H](CCc3cc(F)c(C(F)(F)F)c(F)c3)C(=O)N2C1 [PP1044]
[1]; KD ratio, SPR
  NRAS/KRAS (ratio of KD value with respect to NRAS to KD value with respect to KRAS): C (A compound having a KD ratio of 0.1 or more and less than 3 is denoted as C)
[2]; KD ratio, SPR
  HRAS/KRAS (ratio of KD value with respect to HRAS to KD value with respect to KRAS): C (A compound having a KD ratio of 0.1 or more and less than 3 is denoted as C)

## CC[C@H](C)[C@@H]1NC(=O)[C@H](CC(C)C)N(C)C(=O)C[C@@H](C(=O)N2CCOCC2)N(C)C(=O)[C@H](C2CCCC2)N(C)C(=O)C2(CCCC2)NC(=O)[C@@H]2CCCN2C(=O)[C@H](CCc2ccc(C(F)(F)F)c(Cl)c2)NC(=O)CN(C)C(=O)[C@H](Cc2ccc(C)cc2)N2CCCC[C@@H](C2=O)N(C)C(=O)CN(C)C1=O [PP0316]
[1]; SPR
  NRAS/KRAS (ratio of KD for GDP-bound NRAS wild-type to KD for KRAS): C (A compound having a KD ratio of 0.1 or more and less than 3 is denoted as C)
[2]; SPR
  HRAS/KRAS (ratio of KD for GDP-bound HRAS wild-type to KD for KRAS): B (a compound having 3 or more and less than 10 is denoted as B)

## CCC[C@H]1C(=O)N[C@@H]([C@@H](C)CC)C(=O)N(C)CC(=O)N(C)[C@H]2C/C=C\CCN(C2=O)[C@@H](Cc2ccc(C)cc2)C(=O)N(C)CC(=O)N[C@@H](CCc2cc(F)c(C(F)F)c(F)c2)C(=O)N2C[C@H](OCC)C[C@H]2C(=O)NC2(CC(C)(C)C2)C(=O)N(C)[C@@H](C2CCCC2)C(=O)N(C)[C@H](C(=O)N(C)C)CC(=O)N1C [PP2782]
[1]; class symbols
  NRAS/KRAS (ratio of KD value with respect to GDP-bound NRAS wild-type protein to KD value with respect to KRAS): A (a compound having 10 or more and less than 20 is denoted as A)
[2]; class symbols
  HRAS/KRAS (ratio of KD value with respect to GDP-bound HRAS wild-type protein to KD value with respect to KRAS): A (a compound having 10 or more and less than 20 is denoted as A)

## CCO[C@@H]1C[C@H]2C(=O)NC3(CCC3)C(=O)N(C)[C@@H](C3CCCC3)C(=O)N(C)[C@H](C(=O)N3CCOCC3)CC(=O)N(C)[C@@H](Cc3ccc(Cl)c(Cl)c3)C(=O)N[C@@H]([C@@H](C)CC)C(=O)N(C)CC(=O)N(C)[C@H]3CCCCCN(C3=O)[C@@H](Cc3ccc(F)cc3)C(=O)N(C)CC(=O)N[C@@H](CCc3cc(F)c(C(F)(F)F)c(F)c3)C(=O)N2C1 [PP1188]
[1]; KD ratio, SPR
  NRAS/KRAS (ratio of KD value with respect to NRAS to KD value with respect to KRAS): B (a compound having 3 or more and less than 10 is denoted as B)
[2]; KD ratio, SPR
  HRAS/KRAS (ratio of KD value with respect to HRAS to KD value with respect to KRAS): B (a compound having 3 or more and less than 10 is denoted as B)

## CCO[C@@H]1C[C@H]2C(=O)NC3(CCC3)C(=O)N(C)[C@@H](C3CCCC3)C(=O)N(C)[C@H](C(=O)N3CCOCC3)CC(=O)N(C)[C@@H](CC(C)C)C(=O)N[C@@H]([C@@H](C)CC)C(=O)N(C)CC(=O)N(C)[C@H]3C/C=C\CCN(C3=O)[C@@H](Cc3ccc(C(F)(F)F)cc3)C(=O)N(C)CC(=O)N[C@@H](CCc3ccc(C(F)(F)F)c(Cl)c3)C(=O)N2C1 [PP0825]
[1]; KD ratio, SPR
  NRAS/KRAS (ratio of KD value with respect to NRAS to KD value with respect to KRAS): A (a compound having 10 or more and less than 20 is denoted as A)
[2]; KD ratio, SPR
  HRAS/KRAS (ratio of KD value with respect to HRAS to KD value with respect to KRAS): A (a compound having 10 or more and less than 20 is denoted as A)

## C#CC[C@H]1C(=O)N[C@@H]([C@@H](C)CC)C(=O)N(C)CC(=O)N(C)[C@H]2C/C=C\CCN(C2=O)[C@@H](Cc2ccc(C(F)(F)F)cc2)C(=O)N(C)CC(=O)N[C@@H](CCc2ccc(C(F)(F)F)c(OC)c2)C(=O)N2C[C@@H](C)C[C@H]2C(=O)NC2(CCC2)C(=O)N(C)[C@@H](C2CCCC2)C(=O)N(C)[C@H](C(=O)N(C)CCC)CC(=O)N1C [PP2063]
[1]; SPR
  NRAS/KRAS (ratio of KD value with respect to NRAS to KD value with respect to KRAS): AA (a compound having 20 or more is denoted as AA)
[2]; SPR
  HRAS/KRAS (ratio of KD value with respect to HRAS to KD value with respect to KRAS): A (a compound having 10 or more and less than 20 is denoted as A)

## CCO[C@@H]1C[C@H]2C(=O)NC3(CCC3)C(=O)N(C)[C@@H](C3CCCC3)C(=O)N(C)[C@H](C(=O)N(C)C)CC(=O)N(C)[C@@H](CC3CC3)C(=O)N[C@@H]([C@@H](C)CC)C(=O)N(C)CC(=O)N(C)[C@H]3CCCCCN(C3=O)[C@@H](Cc3ccc(C(F)(F)F)cc3)C(=O)N(C)CC(=O)N[C@@H](CCc3cc(F)c(C(F)(F)F)c(F)c3)C(=O)N2C1 [PP0667]
[1]; SPR
  NRAS/KRAS (ratio of KD value with respect to GDP-bound NRAS wild-type protein to KD value with respect to KRAS): B (a compound having 3 or more and less than 10 is denoted as B)
[2]; SPR
  HRAS/KRAS (ratio of KD value with respect to GDP-bound HRAS wild-type protein to KD value with respect to KRAS): B (a compound having 3 or more and less than 10 is denoted as B)

## CCO[C@@H]1C[C@H]2C(=O)NC3(CC(C)(C)C3)C(=O)N(C)[C@@H](C(CC)CC)C(=O)N(C)[C@H](C(=O)N3CCCCC3)CC(=O)N(C)[C@@H](COC)C(=O)N[C@@H]([C@@H](C)CC)C(=O)N(C)CC(=O)N(C)[C@H]3C/C=C\CCN(C3=O)[C@@H](Cc3ccc(C(F)(F)F)cc3)C(=O)N(C)CC(=O)N[C@@H](CCc3ccc(Cl)c(Cl)c3)C(=O)N2C1 [PP2610]
[1]; class symbols
  NRAS/KRAS (ratio of KD value with respect to GDP-bound NRAS wild-type protein to KD value with respect to KRAS): AA (a compound having 20 or more is denoted as AA)
[2]; class symbols
  HRAS/KRAS (ratio of KD value with respect to GDP-bound HRAS wild-type protein to KD value with respect to KRAS): A (a compound having 10 or more and less than 20 is denoted as A)

## CCC[C@H]1C(=O)N[C@@H]([C@@H](C)CC)C(=O)N2CCC[C@H]2C(=O)N(C)[C@H]2C/C=C\CCN(C2=O)[C@@H](Cc2ccc(C)cc2)C(=O)N(C)CC(=O)N[C@@H](CCc2ccc(C(F)(F)F)c(OC)c2)C(=O)N2C[C@H](OCC)C[C@H]2C(=O)N(C)C2(CCC2)C(=O)N(C)[C@@H](C2CCCC2)C(=O)N(C)[C@H](C(=O)N2CCCCC2)CC(=O)N1C [PP3100, (1S,4S,10S,13S,17S,20S,26S,28R,32S,38S,42Z)-20-cyclopentyl-28-ethoxy-32-[2-[3-methoxy-4-(trifluoromethyl)phenyl]ethyl]-2,14,18,21,24,36-hexamethyl-10-[(1S)-1-methylpropyl]-17-(piperidine-1-carbonyl)-13-propyl-38-(p-tolylmethyl)spiro[2,8,11,14,18,21,24,30,33,36,39-undecazatetracyclo[37.5.1.0^4,8.0^26,30]pentatetracont-42-ene-23,1′-cyclobutane]-3,9,12,15,19,22,25,31,34,37,45-undecone]
[1]; [3]
  NRAS/KRAS (ratio of KD value with respect to GDP-bound NRAS wild-type protein to KD value with respect to KRAS): A (a compound having 10 or more and less than 20 is denoted as A)
[2]; [3]
  HRAS/KRAS (ratio of KD value with respect to GDP-bound HRAS wild-type protein to KD value with respect to KRAS): B (a compound having 3 or more and less than 10 is denoted as B)

## CCC(CC)[C@@H]1NC(=O)[C@H](CC(C)C)N(C)C(=O)C[C@@H](C(=O)N2CCOCC2)N(C)C(=O)[C@H](C2CCCC2)N(C)C(=O)C2(CCCC2)NC(=O)[C@@H]2CCCN2C(=O)[C@H](CCc2cc(F)c(C(F)(F)F)c(F)c2)NC(=O)CN(C)C(=O)[C@H](Cc2ccc(C(F)(F)F)cc2)N2CCCC[C@@H](C2=O)N(C)C(=O)CN(C)C1=O [PP0597]
[1]; SPR
  NRAS/KRAS (ratio of KD value with respect to GDP-bound NRAS wild-type protein to KD value with respect to KRAS): B (a compound having 3 or more and less than 10 is denoted as B)
[2]; SPR
  HRAS/KRAS (ratio of KD value with respect to GDP-bound HRAS wild-type protein to KD value with respect to KRAS): B (a compound having 3 or more and less than 10 is denoted as B)

## CCO[C@@H]1C[C@H]2C(=O)NC3(CCC3)C(=O)N(C)[C@@H](C(C)(C)C)C(=O)N(C)[C@H](C(=O)N3CCOCC3)CC(=O)N(C)[C@@H](CC(C)C)C(=O)N[C@@H]([C@@H](C)CC)C(=O)N(C)CC(=O)N(C)[C@H]3CCCCCN(C3=O)[C@@H](Cc3ccc(C(F)(F)F)cc3)C(=O)N(C)CC(=O)N[C@@H](CCc3cc(F)c(C(F)(F)F)c(F)c3)C(=O)N2C1 [PP0823]
[1]; KD ratio, SPR
  NRAS/KRAS (ratio of KD value with respect to NRAS to KD value with respect to KRAS): A (a compound having 10 or more and less than 20 is denoted as A)
[2]; KD ratio, SPR
  HRAS/KRAS (ratio of KD value with respect to HRAS to KD value with respect to KRAS): B (a compound having 3 or more and less than 10 is denoted as B)

## CCCN1C(=O)CN(C)C(=O)[C@@H]2CCN2C(=O)[C@H]([C@@H](C)CC)NC(=O)[C@H](CC(C)C)N(C)C(=O)C[C@@H](C(=O)N(C)C)NC(=O)[C@H](C2CCCC2)N(C)C(=O)C2(CCCC2)NC(=O)[C@@H]2C[C@@H](OCC)CN2C(=O)[C@H](CCc2ccc(C(F)(F)F)c(Cl)c2)NC(=O)CN(C)C(=O)[C@@H]1Cc1ccc(C(F)(F)F)cc1 [PP0377] ([NMeL]I[Aze][Sar][NPrPhe(4-CF3)][Sar][hPhe(3-Cl-4-CF3)][Hyp](Et)[Ac5c][NMeGly(cPent)]D-NMe2; lactam N-11)
[1]; SPR
  NRAS/KRAS (ratio of KD for GDP-bound NRAS wild-type to KD for KRAS): B (a compound having 3 or more and less than 10 is denoted as B)
[2]; SPR
  HRAS/KRAS (ratio of KD for GDP-bound HRAS wild-type to KD for KRAS): C (A compound having a KD ratio of 0.1 or more and less than 3 is denoted as C)
